Experimental data: patent US12023306B2, “Compositions comprising a cannabinoid and spilanthol” (priority 2019, dated 2024)

How the values were obtained:
[1] = test system: NASH induced by a methionine and choline deficient (MCD) diet; assay: MCD diet induced NASH in mice, liver weight; assay type: in vivo, FVB/NJ mice; conditions: same doses, 21 days
Description: (§1) MCD diet in mice is considered a common gold standard model for the development of NASH. In this model, the absence of methionine leads to hepatic injury, inflammation, and fibrosis, and the deficiency of choline leads to macrovesicular steatosis. The MCD diet mouse model has been used in several studies to induce NASH with or without fibrosis.
(§2) NASH was induced in 12 weeks old Male FVB/NJ mice fed with the MCD diet for 21 days. Mice were divided into 5 study groups (12 mice in each group): • 1. Healthy animal group—No induction of NASH by MCD diet. • 2. MCD diet group—with no treatment by either CBD or Spilanthol. • 3. CBD alone group—MCD diet+daily CBD 50 mg/kg treatment. • 4. Spilanthol alone group—MCD diet+daily Spilanthol 10 mg/kg treatment. • 5. Combination treatment group—MCD diet+daily CBD 50 mg/kg and Spilanthol 10 mg/kg treatment.
(§3) Treatment was given via gavage daily for 21 days. […] Body weight was monitored every other day. At the end of day 21 the animals were sacrificed, and study readouts as described below were measured.
(§4) The following readouts were measured in the study as indicators for the therapeutic efficacy of the different treatments: • 1. […] Study Readouts
3. […] The total liver weight was also measured for all mice following the 21 days of the study. […] The average liver weight as measured in the not dieted mice group (healthy) was 1.22 grams. […]

[2] = test system: Dextran Sodium Sulphate (DSS) induced colitis; assay: DSS induced colitis in mice, changes in body weight; assay type: in vivo, C57BL/6 mice; conditions: CBD 50 mg/kg, Spilanthol 10 mg/kg, gavage daily for 8 days; for prevention of the weight loss effect (improvement in outcome vs vehicle): day 9; for average loss of baseline body weight: measured on day 9, vehicle 14.6%
Protocol: (§5) Colitis was induced in 10 weeks old female C57BL/6 mice (Harlan laboratories, Israel) by feeding them for 8 days with 1.5% (w/vol) DSS in the drinking water (Peer et al. Science, 319: 627-630, 2008; Dearling et al. IBD 2010; Dearling et al. IBD 2016), Kedmi et al. Nature Nanotechnology, 2018.
(§6) Mice were divided into 4 study groups (10 mice in each group): 1. Vehicle treatment group; 2. CBD 50 mg/kg treatment group; 3. Spilanthol 10 mg/kg treatment group; and 4. CBD 50 mg/kg+Spilanthol 10 mg/kg combination treatment group (herein “test combination group”). Treatment was given via gavage daily for 8 days. An additional group of 10 healthy mice served as a […] control arm. Body weight was monitored every other day. At the end of day 9 the animals were sacrificed and colon TNFα levels as well as the total length of the length of colon from the cecum to anus were assayed.
(§7) The following readouts were measured in the study as indicators for assessing the amelioration and the therapeutic efficacy of the different treatments: 1. Changes in body weight, 2. Colon's TNFα levels as measured by ELISA kits (R&D Systems, USA), 3. Total length of colon from cecum to anus, as measured by a blinded veterinary doctor.

[3] = test system: alanine aminotransferase (ALT); assay: MCD diet induced NASH in mice, ALT activity in serum; assay type: in vivo, FVB/NJ mice; conditions: CBD 50 mg/kg, Spilanthol 10 mg/kg, gavage daily for 21 days, MCD elevation 515 SFU/ml
Description: as §1
as §2, with “Combination treatment group—MCD diet+daily CBD 50 mg/kg and Spilanthol 10 mg/kg treatment.” left out
as §3, §4
1. Liver enzyme activity levels in serum: The average level of alanine aminotransferase (ALT) activity in the serum of the mice in the different treatment groups was measured using a biochemical autoanalyzer following 21 days of the. […]

[4] = test system: aspartate aminotransferase (AST); assay: MCD diet induced NASH in mice, AST activity in serum; assay type: in vivo, FVB/NJ mice; conditions: CBD 50 mg/kg, Spilanthol 10 mg/kg, gavage daily for 21 days
Description: as §1, §2
Treatment was given via gavage daily for 21 days. That is, the MCD diet and treatment were initiated simultaneously, so as to examine the treatments' ability both to prevent and treat NASH. Body weight was monitored every other day. At the end of day 21 the animals were sacrificed, and study readouts as described below were measured.
The following readouts were measured in the study as indicators for the therapeutic efficacy of the different treatments: • 1. 1. Liver enzymes activity levels in the serum (ALT and AST). • 2. 2. […] Study Readouts […]

[5] = test system: Dextran Sodium Sulphate (DSS) induced colitis; assay: DSS induced colitis in mice, total length of colon from cecum to anus; assay type: in vivo, C57BL/6 mice; conditions: for average colon length: CBD 50 mg/kg, Spilanthol 10 mg/kg, gavage daily 8 days, day 9, healthy 7.66, vehicle 4.9 cm; for decrease of colon length from baseline (healthy mice): vehicle 36% decrease
Protocol: as §5, §6, §7

IL-6 = assay: MCD diet induced NASH in mice, IL-6 serum levels by ELISA; assay type: in vivo, FVB/NJ mice; conditions: same doses, 21 days, healthy 88, untreated dieted 2,912 pg/ml
Description: as §1, §2, §3, §4
2. […] Pro-inflammatory cytokine IL-6 levels were also measured in the serum of the mice at the end of the 21 days of the study using a commercial ELISA kit (R&D systems, USA). […]

TNFα = assay: DSS induced colitis in mice, colon TNFα levels by ELISA; assay type: in vivo, C57BL/6 mice; conditions: for average colon TNFα level: CBD 50 mg/kg, Spilanthol 10 mg/kg, gavage daily 8 days, day 9, healthy 486, vehicle 1,116 pg/ml; for reduction in the TNFα increase effect / reduction of colon TNFα level comparing to vehicle / increase of colon TNFα level from baseline (healthy mice): same doses; for reduction in the TNFα increase effect / reduction of colon TNFα level comparing to vehicle: day 9; for increase of colon TNFα level from baseline (healthy mice): vehicle 130% increase
Protocol: as §5, §6, §7

[6] = test system: RAW 264.7 murine macrophages; conditions: concentrations up to 40 μg/ml; cited from earlier work
ICR mice = conditions: acute toxicity; cited from earlier work
Ames test = conditions: cited from earlier work
[7] = test system: nitric oxide (NO) production; conditions: RAW 264.7 murine macrophages; cited from earlier work
[8] = test system: human HEK293 kidney cells; conditions: cited from earlier work

Structure (SMILES)	reduction in liver weight loss [1]	prevention of the weight loss effect (improvement in outcome vs vehicle) [2] [%]	average loss of baseline body weight [2] [%]	reduction of the elevated ALT serum activity levels [3]	reduction in AST enzyme activity levels in serum [4]	average colon length [5] [cm]	decrease of colon length from baseline (healthy mice) ([5]; same doses) [%]	improvement in outcome (colon shortening effect) ([5]; same doses, vs vehicle) [%]	reduction of the colon shortening effect ([5]; same doses, vs vehicle) [cm]	reduction of the elevated IL-6 serum levels (IL-6)	average colon TNFα level (TNFα) [pg/mL]	reduction in the TNFα increase effect (TNFα) [%]	reduction of colon TNFα level comparing to vehicle (TNFα) [pg/mL]	increase of colon TNFα level from baseline (healthy mice) (TNFα) [%]	cytotoxic effects [6]	median lethal dose (LD50) (ICR mice) [mg/kg]	mutagenic effects (Ames test; Ames test)	antimutagenic effects (Ames test; at 25 and 50 μg/ml)	effect on nitric oxide (NO) production [7]	cytotoxic effect, mean inhibitory concentration (IC50) [8] [mg/L]
C=C(C)C1CCC(C)=CC1c1c(O)cc(CCCCC)cc1O (stereo not drawn) [CBD, 2-[3-methyl-6-(1-methylethenyl)-2-cyclohexen-1-yl]-5-pentyl-1,3-benzenediol]	38.3%	44	8.2	16.5%	neither CBD alone, nor Spilanthol alone has any significant effect	5.31	30.7	14.9	0.41	13.5%	928	30	188	91						
C/C=C/C=C\CC/C=C/C(=O)NCC(C)C [Spilanthol, (2E,6Z,8E)-N-isobutyl-2,6,8-decatrienamide]	no effect	0	14.6	no effect	neither CBD alone, nor Spilanthol alone has any significant effect	4.9	36	0		ineffective	980	21.5	136	101	No cytotoxic effects	113	No mutagenic effects	antimutagenic effects of affinin were observed	stimulatory effect	260
